Assay: Stability in liver microsomes, human
Conditions: not given

Row | Structure (SMILES) | Trep Concentration 0 min [µM] | Trep Concentration 10 min [µM] | Trep Concentration 20 min [µM] | Trep Concentration 30 min [µM] | Trep Concentration 60 min [µM]
1 | CCCCCC(CCC1C(O)CC2Cc3c(cccc3OCC(=O)O)CC21)OC(=O)OC(C)C (stereo not drawn) [XVII] | 0.55 | 0.55 | 0.5 | 0.39 | 0.27
2 | CCCCCC(CCC1C(O)CC2Cc3c(cccc3OCC(=O)O)CC21)OC(=O)OCC (stereo not drawn) [XVI] | 0.69 | 0.6 | 0.49 | 0.41 | 0.25
3 | CCCCCC(O)CCC1C(OC(=O)CCC(=O)O)CC2Cc3c(cccc3OCC(=O)O)CC21 (stereo not drawn) [XXII] | 0 | 0 | 0 | 0 | 0
4 | CCCCC[C@@H](CC[C@@H]1[C@H]2Cc3cccc(OCC(=O)O)c3C[C@H]2C[C@H]1O)OC(=O)[C@@H](N)C(C)C [XXIX] | 0.00482 |  | 0.0168 | 0.0173 | 0.0265
5 | CCCCCC(CCC1C(O)CC2Cc3c(cccc3OCC(=O)O)CC21)OC(=O)OCC(=O)O (stereo not drawn) [XXXIX] | 0 | 0 | 0 | 0 | 0
6 | CCCCCC(CCC1C(O)CC2Cc3c(cccc3OCC(=O)O)CC21)OC(=O)C(C)N (stereo not drawn) [XXXI] | 0.0531 | 0.193 | 0.31 | 0.327 | 0.383
7 | CCCCCC(CCC1C(O)CC2Cc3c(cccc3OCC(=O)O)CC21)OC(=O)NCC(=O)O (stereo not drawn) [XXXVIII] | 0 | 0 | 0 | 0 | 0

Same assay, conditions: human

Row | Structure (SMILES) | AUC [µmol·min/L]
8 | CCCCCC(CCC1C(O)CC2Cc3c(cccc3OCC(=O)O)CC21)OC(=O)OC(C)C (stereo not drawn) [XVII] | 25.10
9 | CCCCCC(CCC1C(O)CC2Cc3c(cccc3OCC(=O)O)CC21)OC(=O)OCC (stereo not drawn) [XVI] | 26.30
10 | CCCCCC(O)CCC1C(OC(=O)CCC(=O)O)CC2Cc3c(cccc3OCC(=O)O)CC21 (stereo not drawn) [XXII] | 0.00
11 | CCCCC[C@@H](CC[C@@H]1[C@H]2Cc3cccc(OCC(=O)O)c3C[C@H]2C[C@H]1O)OC(=O)[C@@H](N)C(C)C [XXIX] | 1.05
12 | CCCCCC(CCC1C(O)CC2Cc3c(cccc3OCC(=O)O)CC21)OC(=O)OCC(=O)O (stereo not drawn) [XXXIX] | 0.00
13 | CCCCCC(CCC1C(O)CC2Cc3c(cccc3OCC(=O)O)CC21)OC(=O)C(C)N (stereo not drawn) [XXXI] | 17.58
14 | CCCCCC(CCC1C(O)CC2Cc3c(cccc3OCC(=O)O)CC21)OC(=O)NCC(=O)O (stereo not drawn) [XXXVIII] | 0.00

Assay: not given
Conditions: dog

Row | Structure (SMILES) | AUC [µmol·min/L]
15 | CCCCCC(CCC1C(O)CC2Cc3c(cccc3OCC(=O)O)CC21)OC(=O)OC(C)C (stereo not drawn) [XVII] | 42.10
16 | CCCCCC(CCC1C(O)CC2Cc3c(cccc3OCC(=O)O)CC21)OC(=O)OCC (stereo not drawn) [XVI] | 56.90
17 | CCCCCC(O)CCC1C(OC(=O)CCC(=O)O)CC2Cc3c(cccc3OCC(=O)O)CC21 (stereo not drawn) [XXII] | 0.00
18 | CCCCC[C@@H](CC[C@@H]1[C@H]2Cc3cccc(OCC(=O)O)c3C[C@H]2C[C@H]1O)OC(=O)[C@@H](N)C(C)C [XXIX] | 1.30
19 | CCCCCC(CCC1C(O)CC2Cc3c(cccc3OCC(=O)O)CC21)OC(=O)OCC(=O)O (stereo not drawn) [XXXIX] | 0.00
20 | CCCCCC(CCC1C(O)CC2Cc3c(cccc3OCC(=O)O)CC21)OC(=O)C(C)N (stereo not drawn) [XXXI] | 35.65
21 | CCCCCC(CCC1C(O)CC2Cc3c(cccc3OCC(=O)O)CC21)OC(=O)NCC(=O)O (stereo not drawn) [XXXVIII] | 0.00

Assay: Stability in liver microsomes, rat
Conditions: not given

Row | Structure (SMILES) | Trep Concentration 0 min [µM] | Trep Concentration 10 min [µM] | Trep Concentration 20 min [µM] | Trep Concentration 30 min [µM] | Trep Concentration 60 min [µM]
22 | CCCCCC(CCC1C(O)CC2Cc3c(cccc3OCC(=O)O)CC21)OC(=O)OC(C)C (stereo not drawn) [XVII] | 0.29 | 0.46 | 0.48 | 0.53 | 0.53
23 | CCCCCC(CCC1C(O)CC2Cc3c(cccc3OCC(=O)O)CC21)OC(=O)OCC (stereo not drawn) [XVI] | 0.98 | 0.97 | 0.92 | 0.91 | 0.86
24 | CCCCCC(O)CCC1C(OC(=O)CCC(=O)O)CC2Cc3c(cccc3OCC(=O)O)CC21 (stereo not drawn) [XXII] | 0 | 0 | 0 | 0 | 0.016
25 | CCCCC[C@@H](CC[C@@H]1[C@H]2Cc3cccc(OCC(=O)O)c3C[C@H]2C[C@H]1O)OC(=O)[C@@H](N)C(C)C [XXIX] | 0 | 0.00463 | 0.00443 | 0.0102 | 0.0178
26 | CCCCCC(CCC1C(O)CC2Cc3c(cccc3OCC(=O)O)CC21)OC(=O)OCC(=O)O (stereo not drawn) [XXXIX] | 0 | 0 | 0 | 0 | 0
27 | CCCCCC(CCC1C(O)CC2Cc3c(cccc3OCC(=O)O)CC21)OC(=O)C(C)N (stereo not drawn) [XXXI] | 0.00504 | 0.0179 | 0.0351 | 0.0465 | 0.107
28 | CCCCCC(CCC1C(O)CC2Cc3c(cccc3OCC(=O)O)CC21)OC(=O)NCC(=O)O (stereo not drawn) [XXXVIII] | 0 | 0 | 0 | 0 | 0

Assay: not given
Conditions: rat

Row | Structure (SMILES) | AUC [µmol·min/L]
29 | CCCCCC(CCC1C(O)CC2Cc3c(cccc3OCC(=O)O)CC21)OC(=O)OC(C)C (stereo not drawn) [XVII] | 29.40
30 | CCCCCC(CCC1C(O)CC2Cc3c(cccc3OCC(=O)O)CC21)OC(=O)OCC (stereo not drawn) [XVI] | 54.90
31 | CCCCCC(O)CCC1C(OC(=O)CCC(=O)O)CC2Cc3c(cccc3OCC(=O)O)CC21 (stereo not drawn) [XXII] | 0.24
32 | CCCCC[C@@H](CC[C@@H]1[C@H]2Cc3cccc(OCC(=O)O)c3C[C@H]2C[C@H]1O)OC(=O)[C@@H](N)C(C)C [XXIX] | 0.56
33 | CCCCCC(CCC1C(O)CC2Cc3c(cccc3OCC(=O)O)CC21)OC(=O)OCC(=O)O (stereo not drawn) [XXXIX] | 0.00
34 | CCCCCC(CCC1C(O)CC2Cc3c(cccc3OCC(=O)O)CC21)OC(=O)C(C)N (stereo not drawn) [XXXI] | 3.09
35 | CCCCCC(CCC1C(O)CC2Cc3c(cccc3OCC(=O)O)CC21)OC(=O)NCC(=O)O (stereo not drawn) [XXXVIII] | 0.00

Assay: Stability in liver microsomes, dog
Conditions: not given

Row | Structure (SMILES) | Trep Concentration 0 min [µM] | Trep Concentration 10 min [µM] | Trep Concentration 20 min [µM] | Trep Concentration 30 min [µM] | Trep Concentration 60 min [µM]
36 | CCCCCC(CCC1C(O)CC2Cc3c(cccc3OCC(=O)O)CC21)OC(=O)OC(C)C (stereo not drawn) [XVII] | 0.45 | 0.57 | 0.66 | 0.74 | 0.85
37 | CCCCCC(CCC1C(O)CC2Cc3c(cccc3OCC(=O)O)CC21)OC(=O)OCC (stereo not drawn) [XVI] | 0.66 | 0.95 | 1.01 | 1.01 | 0.92
38 | CCCCCC(O)CCC1C(OC(=O)CCC(=O)O)CC2Cc3c(cccc3OCC(=O)O)CC21 (stereo not drawn) [XXII] | 0 | 0 | 0 | 0 | 0
39 | CCCCC[C@@H](CC[C@@H]1[C@H]2Cc3cccc(OCC(=O)O)c3C[C@H]2C[C@H]1O)OC(=O)[C@@H](N)C(C)C [XXIX] | 0 | 0.012 | 0.0177 | 0.025 | 0.0334
40 | CCCCCC(CCC1C(O)CC2Cc3c(cccc3OCC(=O)O)CC21)OC(=O)OCC(=O)O (stereo not drawn) [XXXIX] | 0 | 0 | 0 | 0 | 0
41 | CCCCCC(CCC1C(O)CC2Cc3c(cccc3OCC(=O)O)CC21)OC(=O)C(C)N (stereo not drawn) [XXXI] | 0.134 | 0.479 | 0.63 | 0.674 | 0.694
42 | CCCCCC(CCC1C(O)CC2Cc3c(cccc3OCC(=O)O)CC21)OC(=O)NCC(=O)O (stereo not drawn) [XXXVIII] | 0 | 0 | 0 | 0 | 0

Assay: Stability in human subcutaneous skin homogenate
Conditions: not given

Row | Structure (SMILES) | Trep Concentration 0 min [µM] | Trep Concentration 30 min [µM] | Trep Concentration 60 min [µM] | Trep Concentration 120 min [µM]
43 | CCCCCC(CCC1C(O)CC2Cc3c(cccc3OCC(=O)O)CC21)OC(=O)OC(C)C (stereo not drawn) [XVII] | 0 | 0.064 | 0.12 | 0.22
44 | CCCCCC(CCC1C(O)CC2Cc3c(cccc3OCC(=O)O)CC21)OC(=O)OCC (stereo not drawn) [XVI] | 0 | 0.17 | 0.31 | 0.53
45 | CCCCCC(O)CCC1C(OC(=O)CCC(=O)O)CC2Cc3c(cccc3OCC(=O)O)CC21 (stereo not drawn) [XXII] | 0 | 0 | 0 | 0
46 | CCCCC[C@@H](CC[C@@H]1[C@H]2Cc3cccc(OCC(=O)O)c3C[C@H]2C[C@H]1O)OC(=O)[C@@H](N)C(C)C [XXIX] | 0 | 0.0333 | 0.0488 | 0.0759
47 | CCCCCC(CCC1C(O)CC2Cc3c(cccc3OCC(=O)O)CC21)OC(=O)OCC(=O)O (stereo not drawn) [XXXIX] | 0 | 0 | 0 | 0
48 | CCCCCC(CCC1C(O)CC2Cc3c(cccc3OCC(=O)O)CC21)OC(=O)C(C)N (stereo not drawn) [XXXI] | 0 |  | 0.204 | 0.323
49 | CCCCCC(CCC1C(O)CC2Cc3c(cccc3OCC(=O)O)CC21)OC(=O)NCC(=O)O (stereo not drawn) [XXXVIII] | 0 | 0 | 0 | 0

Same assay, conditions: human

Row | Structure (SMILES) | AUC [µmol·min/L]
50 | CCCCCC(CCC1C(O)CC2Cc3c(cccc3OCC(=O)O)CC21)OC(=O)OC(C)C (stereo not drawn) [XVII] | 13.92
51 | CCCCCC(CCC1C(O)CC2Cc3c(cccc3OCC(=O)O)CC21)OC(=O)OCC (stereo not drawn) [XVI] | 34.95
52 | CCCCCC(O)CCC1C(OC(=O)CCC(=O)O)CC2Cc3c(cccc3OCC(=O)O)CC21 (stereo not drawn) [XXII] | 0.00
53 | CCCCC[C@@H](CC[C@@H]1[C@H]2Cc3cccc(OCC(=O)O)c3C[C@H]2C[C@H]1O)OC(=O)[C@@H](N)C(C)C [XXIX] | 5.47
54 | CCCCCC(CCC1C(O)CC2Cc3c(cccc3OCC(=O)O)CC21)OC(=O)OCC(=O)O (stereo not drawn) [XXXIX] | 0.00
55 | CCCCCC(CCC1C(O)CC2Cc3c(cccc3OCC(=O)O)CC21)OC(=O)C(C)N (stereo not drawn) [XXXI] | 22.23
56 | CCCCCC(CCC1C(O)CC2Cc3c(cccc3OCC(=O)O)CC21)OC(=O)NCC(=O)O (stereo not drawn) [XXXVIII] | 0.00

— patent US12491170B2, “Stable treprostinil prodrugs” (United Therapeutics Corporation, priority 2020, dated 2025)
